Test system: healthy balb/C mice
Assay: Tolerability of intraperitoneal pirfenidone dose
Assay type: in vivo
Details: free drug in 10% ethanol in PBS, 200 mg/kg
Procedure: Pirfenidone was dissolved in a 10% ethanol in PBS solution and administered intraperitoneally to healthy balb/C mice. The intraperitoneal pirfenidone dose was 200 mg/kg. […] However, the same dose was well-tolerated using albumin nanoparticles containing pirfenidone. The nanoparticles were injected twice daily for a total dose of 200 mg/kg per day for 16 days. This example highlights the ability of drug-loaded nanoparticles to slowly release drugs and lower their toxic side effects.

Cc1ccc(=O)n(-c2ccccc2)c1 [Pirfenidone, pirfenidone]
Tolerability: immediate neurological symptoms in the mice as well as death
